Among the data in ChEMBL document CHEMBL1140954, “Syntheses and cytotoxicities of the analogues of the taxoid brevifoliol” (Eur J Med Chem, 2008) are IC50 and IC90 values, retold here.

In brackets after ≈: the same amount, converted by molar mass.

In one series the test system is KB. The series is described as follows: Cytotoxicity against human KB cells after 48 hrs by MTT assay. The format is functional, cell-based. (Tetrazolium assays rely on reduction of a dye to a coloured formazan, in cell work by metabolically active cells.)
The next series concerns MCF7. The series is described as follows: Cytotoxicity against human MCF7 cells after 48 hrs by MTT assay. It is filed as functional, cell-based. The following applies: MCF7, 48 h.
Series [1] in a line: (§1) Cytotoxicity against human Caco-2 cells after 48 hrs by MTT assay. The format is cell-based. Conditions: human, Caco-2 cells.
Another series deals with Caco-2. Described as §1. The following applies: Homo sapiens, Caco-2, 48 h. The format is cell-based.
The next series concerns HepG2. The series is described as follows: Cytotoxicity against human HepG2 cells after 48 hrs by MTT assay. The format is functional, cell-based. Conditions: HepG2, 48 h.

On to `C=C1[C@@H](OC(=O)[C@H](O)[C@@H](NC(=O)OC(C)(C)C)c2ccccc2)C[C@H](OC(C)=O)[C@@]2(C)[C@@H](OC(C)=O)[C@H](OC(=O)c3ccccc3)C3=C(C)C(=O)C[C@@]3(C(C)(C)O)[C@@H](OC(C)=O)[C@H]12`, for which the IC50 (usually the concentration needed to halve the response being measured) in the series with KB is 0.105 µg/mL (≈ 0.12 µM); in the series with MCF7, 100 µg/mL (≈ 114 µM); in the series with Caco-2 it was 100 µg/mL (≈ 114 µM); with HepG2 it was 100 µg/mL (≈ 114 µM). Also, the IC90 (as a rule, the point of the concentration-response curve where the effect stands at 90%) in the series with KB came out at 5.33 µg/mL (≈ 6.08 µM); in the series on MCF7 it was 100 µg/mL (≈ 114 µM); in the series on HepG2, 100 µg/mL (≈ 114 µM). The molecule also gave an IC90 at 48 h in series [1] of 100 µg/mL (≈ 114 µM).
For `C=C1[C@H]2C[C@]3(C(C)(C)O)C[C@H](O)C(C)=C3[C@@H](OC(=O)c3ccccc3)[C@H](OC(C)=O)[C@]2(C)[C@@H](OC(C)=O)C[C@@H]1O` [BREVIFOLIOL], the IC50 with KB was found to be 0.0031 µg/mL (≈ 0.00557 µM); in the series on MCF7, 0.86 µg/mL (≈ 1.54 µM); in the series with Caco-2 it was 0.0025 µg/mL (≈ 0.00449 µM); in the series with HepG2, 0.055 µg/mL (≈ 0.0988 µM). Further, the IC90 in the series on KB was determined as 0.6 µg/mL (≈ 1.08 µM); in the series on MCF7 it was 6.16 µg/mL (≈ 11.1 µM); in the series on HepG2, 1.13 µg/mL (≈ 2.03 µM). It took 1.32 µg/mL (≈ 2.37 µM) to reach the 90% level in series [1] (IC90 at 48 h).
Consider `CC(=O)O[C@H]1C(=O)[C@@]2(C)[C@H]([C@H](OC(=O)c3ccccc3)[C@]3(O)C[C@H](OC(=O)[C@H](O)[C@@H](NC(=O)c4ccccc4)c4ccccc4)C(C)=C1C3(C)C)[C@]1(OC(C)=O)CO[C@@H]1C[C@@H]2O` [PACLITAXEL], for which the IC90 amounted to 0.048 µg/mL (≈ 0.0562 µM) in the series on KB, 0.86 µg/mL (≈ 1.01 µM) in the series with MCF7 and 1.13 µg/mL (≈ 1.32 µM) with HepG2. In series [1], this molecule had an IC90 at 48 h of 0.065 µg/mL (≈ 0.0761 µM).
Take `C=C1[C@H]2C[C@]3(C(C)(C)O)CC(=O)C(C)=C3[C@@H](OC(=O)c3ccccc3)[C@H](OC(C)=O)[C@]2(C)[C@@H](OC(C)=O)C[C@@H]1O`: the IC50 with KB was 0.0078 µg/mL (≈ 0.0141 µM); with MCF7 it was 5.33 µg/mL (≈ 9.61 µM); in the series on Caco-2 it was 0.008 µg/mL (≈ 0.0144 µM); with HepG2, 100 µg/mL (≈ 180 µM). The IC90 in the series on KB was found to be 1.13 µg/mL (≈ 2.04 µM); in the series on MCF7, 22.6 µg/mL (≈ 40.7 µM); in the series on HepG2, 100 µg/mL (≈ 180 µM). In series [1], the 90% effect concentration (IC90) at 48 h was 21 µg/mL (≈ 37.9 µM).
Regarding `C=C1[C@@H](O)C[C@H](OC(C)=O)[C@@]2(C)[C@@H](OC(C)=O)[C@H](OC(=O)c3ccccc3)C3=C(C)[C@@H](O)C[C@@]3(C(C)(C)O)[C@@H](OC(C)=O)[C@H]12` [TAXCHININ A], the IC50 in the series with KB is 0.316 µg/mL (≈ 0.514 µM); in the series on MCF7, 58.3 µg/mL (≈ 94.8 µM); with Caco-2, 6.16 µg/mL (≈ 10 µM); in the series on HepG2, 96.6 µg/mL (≈ 157 µM). Also, the IC90 with KB came to 7.5 µg/mL (≈ 12.2 µM); with MCF7 it was 91.6 µg/mL (≈ 149 µM); in the series with HepG2 it was 100 µg/mL (≈ 163 µM). Moreover, it took 21 µg/mL (≈ 34.2 µM) to reach the 90% level in series [1] (IC90 at 48 h).
Take `C=C1[C@@H](OC(=O)[C@H](O)[C@@H](NC(=O)OC(C)(C)C)c2ccccc2)C[C@H](OC(C)=O)[C@]2(C)[C@@H]1C[C@]1(C(C)(C)O)CC(=O)C(C)=C1[C@@H](OC(=O)c1ccccc1)[C@@H]2OC(C)=O`: the IC50 stood at 100 µg/mL (≈ 122 µM) in the series on KB, 8.5 µg/mL (≈ 10.4 µM) with MCF7, 100 µg/mL (≈ 122 µM) in the series on Caco-2 and 0.065 µg/mL (≈ 0.0795 µM) in the series on HepG2. Also, the IC90 in the series with KB stood at 100 µg/mL (≈ 122 µM); in the series on MCF7, 43.3 µg/mL (≈ 53 µM); with HepG2 it was 5.33 µg/mL (≈ 6.52 µM). Also, the IC90 at 48 h in series [1] is 100 µg/mL (≈ 122 µM).
For the molecule `C=C1[C@@H](O)C[C@H](OC(C)=O)[C@@]2(C)[C@@H](OC(C)=O)[C@H](OC(=O)c3ccccc3)C3=C(C)C(=O)C[C@@]3(C(C)(C)O)[C@@H](OC(C)=O)[C@H]12` [13-OXO-TAXCHININ A], the IC50 in the series with KB worked out at 100 µg/mL (≈ 163 µM); in the series with MCF7 it was 100 µg/mL (≈ 163 µM); with Caco-2 it was 100 µg/mL (≈ 163 µM); in the series with HepG2, 96.6 µg/mL (≈ 158 µM). Further, the IC90 in the series on KB, with MCF7 and with HepG2 was 100 µg/mL (≈ 163 µM) in each case. In addition, it took 100 µg/mL (≈ 163 µM) to reach the 90% level in series [1] (IC90 at 48 h).
For `C=C1[C@@H](OC(=O)[C@H](O)[C@@H](NC(=O)OC(C)(C)C)c2ccccc2)C[C@H](OC(C)=O)[C@]2(C)[C@@H]1C[C@]1(C(C)(C)O)C[C@H](OC(=O)C(O)C(NC(=O)OC(C)(C)C)c3ccccc3)C(C)=C1[C@@H](OC(=O)c1ccccc1)[C@@H]2OC(C)=O` (stereo partly specified), the IC50 is 2.73 µg/mL (≈ 2.52 µM) in the series on KB, 100 µg/mL (≈ 92.3 µM) in the series on MCF7, 100 µg/mL (≈ 92.3 µM) with Caco-2 and 96.6 µg/mL (≈ 89.2 µM) in the series on HepG2. Besides, the IC90 in the series with KB amounted to 33.3 µg/mL (≈ 30.7 µM); with MCF7, 100 µg/mL (≈ 92.3 µM); with HepG2, 100 µg/mL (≈ 92.3 µM). In series [1], this molecule registered an IC90 at 48 h of 100 µg/mL (≈ 92.3 µM).
In the case of `C=C1[C@@H](OC(=O)[C@H](O)[C@@H](NC(=O)OC(C)(C)C)c2ccccc2)C[C@H](OC(C)=O)[C@]2(C)[C@@H]1C[C@]1(C(C)(C)O)C[C@H](O)C(C)=C1[C@@H](OC(=O)c1ccccc1)[C@@H]2OC(C)=O`, the IC50 in the series with KB turned out to be 100 µg/mL (≈ 122 µM); in the series with MCF7 it was 33.3 µg/mL (≈ 40.6 µM); with Caco-2, 100 µg/mL (≈ 122 µM); in the series with HepG2 it was 100 µg/mL (≈ 122 µM). The IC90 in the series with KB worked out at 100 µg/mL (≈ 122 µM); in the series on MCF7 it was 55 µg/mL (≈ 67.1 µM); in the series on HepG2 it was 100 µg/mL (≈ 122 µM). The IC90 at 48 h in series [1] is 100 µg/mL (≈ 122 µM).
In the case of `C=C1[C@H]2C[C@]3(C(C)(C)O)C[C@H](OC(=O)[C@H](O)[C@@H](NC(=O)OC(C)(C)C)c4ccccc4)C(C)=C3[C@@H](OC(=O)c3ccccc3)[C@H](OC(C)=O)[C@]2(C)[C@@H](OC(C)=O)C[C@@H]1O`, the IC50 in the series with KB is 100 µg/mL (≈ 122 µM); in the series with MCF7, 48.3 µg/mL (≈ 58.9 µM); in the series on Caco-2, 100 µg/mL (≈ 122 µM); in the series on HepG2, 78.3 µg/mL (≈ 95.5 µM). In addition, the IC90 in the series on KB was 100 µg/mL (≈ 122 µM); in the series with MCF7 it was 68.3 µg/mL (≈ 83.3 µM); in the series with HepG2, 91.6 µg/mL (≈ 112 µM). Besides, the 90% effect level in series [1] (IC90 at 48 h) was put at 100 µg/mL (≈ 122 µM).
